Data as given in patent publication US9181290B2, “Inhibition of biofilm formation by 1,2,3,4,6-penta-O-galloyl-D-glucopyranose” (CHANG GUNG UNIVERSITY, priority 2011, dated 2015).
Like-named read-outs stand apart in the source and are kept apart here.

Columns and labels:
[1] = system: S. aureus SA113 (ATCC 35556); experiment: Bacterial growth (A578) and biofilm formation (crystal violet, A595) in 96-well polystyrene microtiter plates; type: cell-based, Staphylococcus aureus; conditions: for IC50: Staphylococcus aureus, read-out: IB50 (concentration that inhibited 50% biofilm formation); for Cell Growth (%): growth compared to untreated control at the concentration of IB50
Method: An overnight bacterial culture was 200-fold diluted with TSBg, and a 200 μL aliquot of the diluted culture was seeded into each well of 96-well polystyrene microtiter plates and incubated at 37° C. for a designated period of time. Cell growth was determined by measuring the absorbance at 578 nm (A578) with a microtiter plate reader (SpectraMax 340, Molecular Devices). After washing with PBS twice to remove suspended cells, the wells were stained with 0.1% (w/v) crystal violet in 10% ethanol and then treated with 30% acetic acid in dH2O, followed by detecting the absorbance at 595 nm (A595) with the microtiter plate reader to quantify the amount of biofilm formed on polystyrene surface.
An overnight culture of S. aureus SA113 was 200-fold diluted with TSBg, and a 200 μL aliquot of the diluted culture was seeded into each well of 96-well microtiter plates. Compounds purified from medicinal plants were added into each well at a designated concentration up to […]. At 6 hours after seeding, the amounts of biofilms formed in the wells were determined by crystal violet staining as described above. Cells treated with either distilled water or DMSO were used as a control. The amount of biofilm formation by the control group was set as 100%. Each experiment was repeated at least three times, with n=6 for each sample tested. The concentrations of compounds that inhibited 50% biofilm formation (IB50) were calculated based on logistic regression analysis results. Besides, the biofilm formation inhibition rate of a PGG-treated group was calculated using the following equation (1). Biofilm formation inhibition rate(%)=[(A−B)/A]×100 (1) wherein:
In the wells of 96-well microtiter plates, S. aureus SA113 cells were cultured in TSBg broth in the presence of either β-PGG or α-PGG at different amounts (0, 1 and 10 μM). After incubation at 37° C. for 6 hrs, the cell density was determined by measuring the absorbance at 578 nm (A578), and the amounts of biofilm were quantified by crystal violet staining, with the amount of biofilm formed by untreated bacterial cells being set as 100%. Each experiment was repeated three times, with n=6 for each sample tested.
To determine the effect(s) of (β-PGG upon bacterial growth and biofilm formation, β-PGG in various amounts (final concentration: 0, 1.56, 3.13, 6.25, 12.5, 25 and 50 μM) was added into the culture of S. aureus SA113 during seeding into the wells of polystyrene microtiter plates, followed by incubation at 37° C. for 6 hrs or 24 hrs. Cell growth was determined by measuring the absorbance at 578 nm, and the amount of biofilm formed on polystyrene surface was determined at 595 nm after crystal violet staining. In addition to polystyrene surface, the effect of β-PGG in inhibiting biofilm formation on polycarbonate surface was also examined according to the procedures as described in the preceding section entitled “Materials and methods.”

S. aureus = experiment: Biofilm formation after treatment with other strong antioxidants (data not shown); type: cell-based, Staphylococcus aureus
[2] = ATCC35556, 6 hours, logistic regression

IC50 [1, 2] [µM]	Compound	Cell Growth (%) [1] [%]	influence on biofilm formation (S. aureus)	other results
–	NC(=O)CI [IDA, Iodoacetamide, reference compound]	50	–	IC50 ([1]; ATCC35556, 6 h): 120 µM
6380	CC(=O)N[C@@H](CS)C(=O)O [NAC, N-acetylcysteine, reference compound]	88	–	–
–	(−)-epigallocatechin gallate	–	does not influence biofilm formation	–
41.9	O=C1C=CC(=O)N1c1ccccc1 [NPM, N-phenyl maleimide, reference compound]	66	–	–
–	O=C1O[C@H]([C@@H](O)CO)C(O)=C1O [ascorbic acid]	–	does not influence biofilm formation	–
–	O=C(OC[C@H]1O[C@H](OC(=O)c2cc(O)c(O)c(O)c2)[C@H](OC(=O)c2cc(O)c(O)c(O)c2)[C@@H](OC(=O)c2cc(O)c(O)c(O)c2)[C@@H]1OC(=O)c1cc(O)c(O)c(O)c1)c1cc(O)c(O)c(O)c1 [α-PGG, 1,2,3,4,6-Penta-O-galloyl-α-D-glucopyranose]	–	–	viability of S. aureus SA113 cells (A578) ([1]; 1 μM and 10 μM, 6 hour incubation (anomer comparison)): did not affect the viability; reduction of biofilm formation ([1]; 1 μM, 6 hour incubation (anomer comparison)): 13%; reduction of biofilm formation ([1]; 10 μM, 6 hour incubation (anomer comparison)): 65%
